Legend:
T1 lipase = assay: Lipase stability test: residual activity of T1 lipase after incubation with detergent components; format: biochemical, Geobacillus zalihae strain T1; settings: for Stability of T1 lipase in the component (in words): incubation in 0.2% (w/v) component, 60° C., 30 min
Experimental: The compatibility of the T1 lipase with the other components of the formulated detergent was evaluated by incubating the enzyme in 0.2% (w/v) of those components, i.e., surfactants, bleaches, and alkalinity agents in a water bath (Protech, Malaysia) at 60° C. for 30 min. After 30 min, the enzyme was assayed for its residual activity.
J Am Oil Chem Soc. 63(1): p. 89-92]. A cupric acetate pyridine reagent was prepared by mixing 5% (w/v) copper (II) acetate with DI water and adjusting the solution pH to 6.1 with pyridine. The substrate emulsion used consisted of olive oil/50 mM of Glycine-NaOH buffer at pH 9.0 (1:1), which was homogenized using a homogenizer (Heidolph, Germany). […] After 30 min, the reaction was stopped by adding 5 ml isooctane and 1 ml 6 N HCl, and the mixture was vortexed for 30 s and left for 15 min. 4 ml of the upper layer of the mixture, which contained the fatty acids, was transferred to a test tube containing 1 ml of the cupric acetate pyridine reagent, and the mixture was vortexed for 30 s and left for 1 hour. The color of the solution was then evaluated colorimetrically by reading the OD using the Ultraspec 2100 Pro spectrophotometer (Amersham Bioscience, Sweden) at 715 nm. All assays were done in triplicates. 1 unit (U) of lipase activity was defined as the rate of 1 μmol of fatty acid released per minute under standard assay conditions.

[1] = Resulting pH of the alkalinity agents in solution; format: physicochemical; settings: resulting pH of the alkalinity agent in solution
[2] = T1 lipase residual activity after 30 min at 60° C. in 0.2% (w/v) surfactant or bleach, w/o control = 100
[3] = T1 lipase residual activity after 30 min at 60° C. in 0.2% (w/v) alkalinity agent, Glycine-NaOH control = 100

## CCCCCCCCCCCCCCCC[N+](C)(C)C.[Br-] [CTAB, cetyl trimethylammonium bromide]
T1 lipase; [2]
  Relative activity (%): 1.9%
T1 lipase
  Stability of T1 lipase in the component (in words): strongly destabilized

## CCCCCCCCCCCCOS(=O)(=O)[O-].[Na+] [SDS, sodium dodecyl sulfate]
T1 lipase; [2]
  Relative activity (%): 14%
T1 lipase
  Stability of T1 lipase in the component (in words): destabilized

## O=C([O-])O.[Na+] [Sodium bicarbonate, sodium bicarbonate]
[1]
  pH: 8.63
T1 lipase; [3]
  Relative activity (%): 94%

## O=C([O-])[O-].[Na+].[Na+] [Sodium carbonate, sodium carbonate]
[1]
  pH: 10.84
T1 lipase; [3]
  Relative activity (%): 1%
T1 lipase
  Stability of T1 lipase in the component (in words): lowest residual activities
T1 lipase; listed as carbonate
  Stability of T1 lipase in the component (in words): greatly destabilized

## O=C([O-])CC(O)(CC(=O)[O-])C(=O)[O-].[Na+].[Na+].[Na+] [Sodium citrate, sodium citrate]
[1]
  pH: 8.30
T1 lipase; [3]
  Relative activity (%): 48%
T1 lipase
  Stability of T1 lipase in the component (in words): did not greatly affect the stability

## O=C([O-])[O-].O=C([O-])[O-].OO.OO.OO.[Na+].[Na+].[Na+].[Na+] [Sodium percarbonate, sodium percarbonate]
T1 lipase; [2]
  Relative activity (%): 0.3%
T1 lipase
  Stability of T1 lipase in the component (in words): strongly destabilized

## O=P(O)(O)OP(=O)(O)OP(=O)(O)O [Sodium tripolyphosphate, sodium tripolyphosphate]
[1]
  pH: 9.60
T1 lipase; [3]
  Relative activity (%): 0%
T1 lipase
  Stability of T1 lipase in the component (in words): lowest residual activities

## CCCCCCCC/C=C\CCCCCCCC(=O)OCCOCC(OCCO)C1OCC(OCCO)C1OCCO (centres unmarked) [Tween 80, polysorbate 80]
T1 lipase; [2]
  Relative activity (%): 98%
T1 lipase
  Stability of T1 lipase in the component (in words): highest stability

## Polyethylene glycol 300 [PEG 300]
T1 lipase; [2]
  Relative activity (%): 61%

## sodium perborate
T1 lipase; [2]
  Relative activity (%): 3.4%
T1 lipase
  Stability of T1 lipase in the component (in words): strongly destabilized
